Columns and labels:
C57BL/ksj-db/db mice [1] = test: Blood glucose levels after administration of pravastatin in feed, C57BL/ksj-db/db mice; type: in vivo, mouse; conditions: pravastatin mixed in feed (0.03% and 0.06% wt/wt), dose group, non-dose group 633 mg/dl
Protocol: (§1) C57BL/ksj-db/db mice (male, age 5 weeks) and KKAy mice (female, age 4 weeks) were purchased from Clea Japan, and used in the test after acclimating to the test environment for 1 week. The mice were housed 5 animals to a cage and given unrestricted access to feed (F2, Funabashi Farm) and water.
(§2) The body weights of the animals were measured and blood samples were collected on the day the test started, and the animals were divided into two groups of 5 animals per cage based on their body weights and blood glucose levels. Blood samples were collected at the start of the test and days 4, 7 and 14 after the start of the test in the case of the C57BL/ksj-db/db mice, and at the start of the test and on days 4, 7, 14 and 28 after the start of the test in the case of the KKAy mice. Blood samples were collected from the tail vein in an amount equal to one heparinized capillary tube.
(§3) Pravastatin powder was added to the F2 powder to 0.03% and 0.06% (wt/wt), uniformly mixed and provided to the animals in individual cages. The amount of feed and general behaviour were checked at least once a day.
(§4) Blood glucose levels were measured on the days when blood samples were collected.

C57BL/ksj-db/db mice [2] = test: Glucose tolerance test using pravastatin-dosed mice; type: in vivo, mouse; conditions: pravastatin in feed for 2 weeks, 60 minutes after administration (glucose 2 g/kg i.p.), non-dose group 517 mg/dl
Protocol: A group administered with pravastatin by mixing in feed for 2 weeks and a non-dosed group of C57BL/ksj-db/db mice (n=5) were fasted for 16 hours starting on the day before the start of the test. After measuring the body weight of each animal, glucose solution ([…]) was administered intraperitoneally to 2 g/kg, and blood samples were collected from the tail vein immediately before the start of administration and at 30, 60, 90 and 120 minutes after the start of administration followed by measurement of blood glucose levels.

3T3-L1 adipocytes = test: Glucose uptake enhancing action (in vitro), 3H-2-deoxyglucose uptake in 3T3-L1 adipocytes; type: cell-based; conditions: 10 μM test compound for 72 hours, insulin added, P<0.001
Protocol: Preadipocyte cell line 3T3-L1 was purchased from the American Type Culture Collection (ATCC). The 3T3-L1 cells were plated onto a 24-well, collagen-coated plate and cultured to saturation in growth medium (DMEM, 25 mM glucose, 10% FCS, 100 u/ml penicillin, 0.1 mg/ml streptomycin) under conditions of 37° C. and 5% CO2. Five days after cell proliferation had reached a saturated state, the medium was replaced with medium (DMEM, 25 mM glucose, 10% FCS, 100 u/ml penicillin, 0.1 mg/ml streptomycin) to which had been added 1 μM insulin, 0.5 mM 3-isobutyl-1-methylxanthine and 1 μM dexamethazone to initiate adipocyte differentiation. Two days later, the medium was replaced with growth medium containing 1 μM insulin followed by additionally culturing the cells for 2 days. Subsequently, the medium was replaced with fresh growth medium every 3 days, and the 3T3-L1 adipocytes were prepared on day 10 after the start of differentiation. […]
Measurement of glucose uptake was carried out in the manner described below. […] 160 μl of the cell lysate were mixed with 4 ml of Hionic Fluor (Perkin-Elmer) liquid scintillation counter cocktail followed by measurement of the radioactivity in the cell lysate with a liquid scintillation counter (Packard). The determined radioactivity of the ^3H-labeled was used as an indicator of the amount of glucose taken up into the cells.

[3] = tested on: C57BL/6J mouse adipocytes; test: Glucose uptake test using isolated adipocytes from pravastatin-dosed C57BL/6J mice; type: in vivo; conditions: isolated adipocytes from pravastatin-dosed C57BL/6J mice (normal mice), insulin, 3H-2-deoxyglucose
Protocol: (§5) • (i) Epididymal adipose tissue was excised from a group administered with pravastatin for 1 week and a non-dosed group of C57BL/ksj-db/db mice (n=5). The excised adipose tissue was handled under conditions of 37° C. at all times. The adipose tissue was cut into small pieces with a scissors, followed by the addition of medium (DMEM, 1 mM sodium pyruvate, 25 mM HEPES pH 7.4, 0.1% BSA, 100 u/ml penicillin, 0.1 mg/ml streptomycin) containing 1 mg/ml of collagenase I (Worshington), and shaking at 37° C. and 80 rpm. Following the reaction, 2.5 volumes of the aforementioned medium were added, the adipocytes were screened out by passing the cell suspension through a 260 μm mesh sieve, and again passed through a 100 μm mesh sieve to prepare an adipocyte suspension.
(§6) An adipocyte suspension was prepared for C57BL/6J mice (normal mice) in the same manner as described above. • (ii) The glucose uptake test was carried out in the manner as described below. […] After cutting out the oil layer of the upper layer containing adipocytes with a knife, it was transferred to a glass vial containing 4 ml of Hionic Fluor (Perkin-Elmer) liquid scintillation counter cocktail followed by measurement of specific radioactivity. The amount of measured radioactivity of the ^3H-2-deoxyglucose was used as an indicator of the amount of glucose taken up by the cells. […]

C57BL/ksj-db/db mice [4] = test: Insulin tolerance test using pravastatin-dosed mice; type: in vivo, mouse; conditions: pravastatin in feed for 2 weeks, 60 minutes after insulin 1 u/kg i.p., non-dose group 411 mg/dl
Protocol: A group administered with pravastatin by mixing in feed for 2 weeks and a non-dosed group of C57BL/ksj-db/db mice (n=5) were fasted for 2 hours. After measuring the body weight of each animal, insulin (Humalin, Lilly) was administered intraperitoneally at 1 u/kg, and blood samples were collected from the tail vein immediately before the start of administration and at 30, 60, 90 and 120 minutes after the start of administration followed by measurement of blood glucose levels.

KKAy mice = test: Blood glucose levels after administration of pravastatin in feed, KKAy mice; type: in vivo, mouse; conditions: pravastatin mixed in feed (0.03% and 0.06% wt/wt), dose group, non-dose group 521 mg/dl
Protocol: as §1, §2, §3, §4

[5] = tested on: C57BL/ksj-db/db mouse adipocytes; test: Glucose uptake test using isolated adipocytes from pravastatin-dosed C57BL/ksj-db/db mice; type: in vivo; conditions: isolated epididymal adipocytes from C57BL/ksj-db/db mice dosed with pravastatin for 1 week, insulin, 3H-2-deoxyglucose
Protocol: as §5, §6

For `CC[C@H](C)C(=O)O[C@H]1C[C@H](O)C=C2C=C[C@H](C)[C@H](CC[C@@H](O)C[C@@H](O)CC(=O)O)[C@H]21` [pravastatin, (+)-(3R,5R)-3,5-dihydroxy-7-[(1S,2S,6S,8S,8aR)-6-hydroxy-2-methyl-8-[(S)-2-methylbutyryloxy]-1,2,6,7,8,8a-hexahydro-1-naphthyl]heptanoic acid], the blood glucose level (C57BL/ksj-db/db mice [1]) was 438 mg/dL, the “blood glucose level in glucose tolerance test” value (C57BL/ksj-db/db mice [2]) was 342 mg/dL and the “amount of glucose uptake into the cells relative to control group” value (3T3-L1 adipocytes) was 1.9 times. For the same molecule, the “amount of glucose uptake by dose group relative to non-dose group” value [3] was 1.4 times, the “blood glucose level in insulin tolerance test” value (C57BL/ksj-db/db mice [4]) was 324 mg/dL and the blood glucose level (KKAy mice) was 351 mg/dL. For the same molecule, the “amount of glucose uptake by dose group relative to non-dose group” value [5] was 2.0 times.

Reference: patent US7772272B2, “Method for enhancing glucose uptake into warm-blooded animal adipocytes” (Daiichi Sankyo Company, Limited, priority 2003, dated 2010)
